≈ marks a conversion by molar mass, not a printed value.
What was measured:
MCF7 = test: Cytotoxicity against human MCF7 cells after 48 hrs by MTT assay; type: functional, cell-based; details: MCF7, 48 h
HeLa = test: Cytotoxicity against human HeLa cells after 48 hrs by MTT assay; type: functional, cell-based
HT-29 = test: Cytotoxicity against human HT-29 cells after 48 hrs by MTT assay; type: functional, cell-based; details: HT-29, 48 h
Escherichia coli = test: Antimicrobial activity against Escherichia coli by cup plate diffusion method; type: functional
Priestia megaterium = test: Antimicrobial activity against Bacillus megaterium by cup plate diffusion method; type: functional
Bacillus subtilis = test: Antimicrobial activity against Bacillus subtilis by cup plate diffusion method; type: functional
Candida albicans = test: Antimicrobial activity against Candida albicans by cup plate diffusion method; type: functional
A549 = test: Cytotoxicity against human A549 cells after 48 hrs by MTT assay; type: functional, cell-based; details: A549, 48 h
[1] = Cytotoxicity against human PC3 cells after 48 hrs by MTT assay; type: functional, cell-based; details: PC-3, 48 h
Pseudomonas sp. = test: Antimicrobial activity against Pseudomonas sp. by cup plate diffusion method; type: functional

Row | Compound | IC50 (MCF7) [µg/mL] | IC50 (HeLa) [µg/mL] | IC50 (HT-29) [µg/mL] | MIC (Escherichia coli) [µg/mL] | MIC (Priestia megaterium) [µg/mL] | MIC (Bacillus subtilis) [µg/mL] | MIC (Candida albicans) [µg/mL] | IC50 (A549) [µg/mL] | IC50 [1] [µg/mL] | MIC (Pseudomonas sp.) [µg/mL]
1 | COC(=O)[C@H]1C[C@@H](C(=O)OC)[C@H]2ON=C(c3ccc(OC)cc3)[C@H]21 | > 50 | > 50 | 28.9 (≈ 86.7 µM) | > 100 | > 100 | > 100 | > 100 | > 50 | > 50 | > 100
2 | C[C@@H]1[C@H](O)[C@@H](C)/C=C/C=C/C=C/C=C/C=C/C=C/C=C/[C@H](O[C@@H]2O[C@H](C)[C@@H](O)[C@H](N)[C@@H]2O)C[C@@H]2O[C@](O)(C[C@@H](O)C[C@@H](O)[C@H](O)CC[C@@H](O)C[C@@H](O)CC(=O)O[C@H]1C)C[C@H](O)[C@H]2C(=O)O [AMPHOTERICIN B] | – | – | – | – | – | – | 5 (≈ 5.41 µM) | – | – | –
3 | N#Cc1ccc(C2=NO[C@H]3[C@@H]2[C@@H](C(=O)O)C[C@H]3C(=O)O)cc1 | > 50 | 33.3 (≈ 111 µM) | 30.3 (≈ 101 µM) | > 100 | > 100 | > 100 | > 100 | > 50 | > 50 | > 100
4 | COc1ccc(C2=NO[C@@H]3[C@H](CO)C[C@H](CO)[C@H]23)cc1 | 23.7 (≈ 85.5 µM) | > 50 | > 50 | > 100 | > 100 | > 100 | > 100 | 36.6 (≈ 132 µM) | > 50 | > 100
5 | COC(=O)[C@H]1C[C@@H](C(=O)OC)[C@H]2ON=C(c3ccc(Br)cc3)[C@H]21 | > 50 | 27.4 (≈ 71.7 µM) | > 50 | > 100 | > 100 | > 100 | > 100 | > 50 | > 50 | > 100
6 | COC(=O)[C@H]1C[C@@H](C(=O)OC)[C@H]2ON=C(c3ccc(Cl)cc3)[C@H]21 | > 50 | > 50 | > 50 | > 100 | > 100 | > 100 | > 100 | > 50 | > 50 | > 100
7 | COc1ccc(C2=NO[C@H]3[C@@H]2[C@@H](C(=O)O)C[C@H]3C(=O)O)cc1 | > 50 | > 50 | > 50 | > 100 | > 100 | > 100 | > 100 | > 50 | > 50 | > 100
8 | O=C(O)[C@H]1C[C@@H](C(=O)O)[C@H]2ON=C(c3ccc(F)cc3)[C@H]21 | > 50 | > 50 | > 50 | 78 (≈ 266 µM) | > 100 | > 100 | > 100 | > 50 | > 50 | 7.8 (≈ 26.6 µM)
9 | OC[C@@H]1C[C@H](CO)[C@@H]2C(c3ccccc3Cl)=NO[C@H]12 | > 50 | > 50 | 33.8 (≈ 120 µM) | > 100 | > 100 | 74.4 (≈ 264 µM) | > 100 | > 50 | > 50 | > 100
10 | Cc1ccc(C2=NO[C@H]3[C@@H]2[C@@H](C(=O)O)C[C@H]3C(=O)O)cc1 | > 50 | > 50 | > 50 | > 100 | > 100 | > 100 | > 100 | > 50 | > 50 | > 100
11 | CC1(C)S[C@@H]2[C@H](NC(=O)[C@H](N)c3ccccc3)C(=O)N2[C@H]1C(=O)O [AMPICILLIN] | – | – | – | – | 25 (≈ 71.5 µM) | 25 (≈ 71.5 µM) | – | – | – | –
12 | COc1ccc(C2=NO[C@H]3[C@@H]2[C@@H](C(=O)O)C[C@H]3C(=O)O)cc1OC | > 50 | > 50 | 40.6 (≈ 121 µM) | 88.4 (≈ 264 µM) | > 100 | > 100 | 81.6 (≈ 243 µM) | > 50 | > 50 | 44.2 (≈ 132 µM)
13 | OC[C@@H]1C[C@H](CO)[C@@H]2C(c3ccc(F)cc3)=NO[C@H]12 | > 50 | > 50 | 17.8 (≈ 67.1 µM) | > 100 | > 100 | > 100 | > 100 | 31.1 (≈ 117 µM) | > 50 | > 100
14 | OC[C@@H]1C[C@H](CO)[C@@H]2C(c3ccc(Br)cc3)=NO[C@H]12 | > 50 | > 50 | 37.3 (≈ 114 µM) | > 100 | 48.6 (≈ 149 µM) | 48.6 (≈ 149 µM) | > 100 | > 50 | > 50 | > 100
15 | GENTAMICIN | – | – | – | 2 | – | – | – | – | – | 8
16 | COc1cc([C@@H]2c3cc4c(cc3[C@@H](O[C@@H]3O[C@@H]5CO[C@@H](C)O[C@H]5[C@H](O)[C@H]3O)[C@H]3COC(=O)[C@H]23)OCO4)cc(OC)c1O [ETOPOSIDE] | 11.9 (≈ 20.3 µM) | 2.35 (≈ 3.99 µM) | 4.21 (≈ 7.15 µM) | – | – | – | – | 8.9 (≈ 15.1 µM) | 7.2 (≈ 12.2 µM) | –
17 | COC(=O)[C@H]1C[C@@H](C(=O)OC)[C@H]2ON=C(c3ccc(C)cc3)[C@H]21 | > 50 | > 50 | > 50 | > 100 | > 100 | > 100 | > 100 | > 50 | > 50 | > 100
18 | OC[C@@H]1C[C@H](CO)[C@@H]2C(c3ccc(Cl)cc3)=NO[C@H]12 | 14.7 (≈ 52.2 µM) | > 50 | 22.9 (≈ 81.3 µM) | > 100 | > 100 | > 100 | > 100 | > 50 | > 50 | > 100
19 | COC(=O)[C@H]1C[C@@H](C(=O)OC)[C@H]2ON=C(c3ccc(C#N)cc3)[C@H]21 | > 50 | > 50 | > 50 | > 100 | > 100 | > 100 | > 100 | > 50 | > 50 | > 100
20 | O=C(O)[C@H]1C[C@@H](C(=O)O)[C@H]2ON=C(c3ccc(Br)cc3)[C@H]21 | > 50 | 45.6 (≈ 129 µM) | > 50 | 2.2 (≈ 6.21 µM) | 10.5 (≈ 29.6 µM) | 10.5 (≈ 29.6 µM) | 8.7 (≈ 24.6 µM) | > 50 | > 50 | 22 (≈ 62.1 µM)
21 | COC(=O)[C@H]1C[C@@H](C(=O)OC)[C@H]2ON=C(c3ccc(F)cc3)[C@H]21 | 39.4 (≈ 123 µM) | 20.1 (≈ 62.6 µM) | > 50 | > 100 | > 100 | > 100 | > 100 | > 50 | > 50 | > 100
22 | N#Cc1ccc(C2=NO[C@@H]3[C@H](CO)C[C@H](CO)[C@H]23)cc1 | > 50 | > 50 | > 50 | 2.1 (≈ 7.71 µM) | 21 (≈ 77.1 µM) | 21 (≈ 77.1 µM) | 11 (≈ 40.4 µM) | > 50 | > 50 | 2.1 (≈ 7.71 µM)
23 | O=C(O)[C@H]1C[C@@H](C(=O)O)[C@H]2ON=C(c3ccc(Cl)cc3)[C@H]21 | 28.5 (≈ 92 µM) | 19 (≈ 61.3 µM) | > 50 | > 100 | 30 (≈ 96.9 µM) | 60 (≈ 194 µM) | > 100 | 30 (≈ 96.9 µM) | > 50 | > 100
24 | COC(=O)[C@H]1C[C@@H](C(=O)OC)[C@H]2ON=C(c3ccc4ccccc4c3)[C@H]21 | > 50 | > 50 | > 50 | > 100 | > 100 | > 100 | > 100 | > 50 | > 50 | > 100
25 | O=C(O)[C@H]1C[C@@H](C(=O)O)[C@H]2ON=C(c3ccc4ccccc4c3)[C@H]21 | 31.8 (≈ 97.7 µM) | > 50 | 29.7 (≈ 91.3 µM) | > 100 | > 100 | > 100 | > 100 | > 50 | > 50 | > 100
26 | COC(=O)[C@H]1C[C@@H](C(=O)OC)[C@H]2ON=C(c3ccccc3Cl)[C@H]21 | > 50 | > 50 | > 50 | > 100 | > 100 | > 100 | > 100 | > 50 | > 50 | > 100
27 | O=C(O)[C@H]1C[C@@H](C(=O)O)[C@H]2ON=C(c3ccccc3Cl)[C@H]21 | > 50 | > 50 | > 50 | > 100 | > 100 | > 100 | > 100 | > 50 | > 50 | > 100
28 | COC(=O)[C@H]1C[C@@H](C(=O)OC)[C@H]2ON=C(c3ccc(OC)c(OC)c3)[C@H]21 | > 50 | > 50 | > 50 | > 100 | > 100 | > 100 | > 100 | > 50 | > 50 | > 100
29 | Cc1ccc(C2=NO[C@@H]3[C@H](CO)C[C@H](CO)[C@H]23)cc1 | > 50 | 26.5 (≈ 101 µM) | > 50 | > 100 | > 100 | > 100 | > 100 | > 50 | 28 (≈ 107 µM) | > 100
30 | COc1ccc(C2=NO[C@@H]3[C@H](CO)C[C@H](CO)[C@H]23)cc1OC | > 50 | > 50 | > 50 | 0.92 (≈ 2.99 µM) | 46.8 (≈ 152 µM) | 46.8 (≈ 152 µM) | 4.6 (≈ 15 µM) | > 50 | > 50 | 1.2 (≈ 3.9 µM)
